Measured values taken from publication PMC7083880 (Nature Communications, 2020).

What was measured:
CTU1 = target: T1, CTU1 (Homo sapiens, UniProt Q7Z7A3); experiment: UGA readthrough luciferase assay with CTU1 overexpression; type: cell-based;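 on luciferase activity, average: DAP exposure for 24 h before luciferase measurement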;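 on luciferase activity, exp2: DAP exposure for 24 h before luciferase measurement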
T1 construct: host or cells: HeLa
T1 sequence (Q7Z7A3 1-348): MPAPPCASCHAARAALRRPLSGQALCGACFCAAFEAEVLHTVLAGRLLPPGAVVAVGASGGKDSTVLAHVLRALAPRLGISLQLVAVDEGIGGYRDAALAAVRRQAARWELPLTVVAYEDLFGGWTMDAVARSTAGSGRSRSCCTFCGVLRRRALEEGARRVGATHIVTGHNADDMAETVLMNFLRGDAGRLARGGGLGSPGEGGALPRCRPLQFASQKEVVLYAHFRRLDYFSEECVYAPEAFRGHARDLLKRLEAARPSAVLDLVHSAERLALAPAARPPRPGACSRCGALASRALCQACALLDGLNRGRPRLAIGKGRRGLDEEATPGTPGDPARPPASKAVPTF
Text: (§1) Firefly luciferase from HEK293FT cells transfected with the Fluc-int-UGA construct was immunoprecipitated and digested with trypsin. The MS/MS spectrum of the peptide containing the PTC position and the sequence determination are shown. The upper red and blue sequences indicate the amino acids validated, respectively, by detection of Nter and Cter peptide fragments (b and y ion series). Peptide fragments y6 and y7 clearly identify tryptophan (W) at the PTC position. The black peaks correspond to non-attributed mass-to-charge ratio (m/z) values. […] Readthrough efficiency was determined by measuring luciferase activity in HeLa cells co-transfected with the firefly luciferase construct described in Fig. 1b and with increasing amounts of an expression vector for either FTSJ1 or CTU1 (0.5, 1, or 2 µg). The empty expression vector (E.v.) was used as control. […] The experiment was performed twice and the results of both experiments (Exp1 and Exp2) are shown. c Western blot analysis of FTSJ1 and CTU1. d 2′-O-methylation analysis of tRNA^Trp, tRNA^SER, and tRNA^GLN by RiboMethSeq. […] A molecular weight marker is indicated to the left of each gel. p-values (p) were calculated using Student’s t-test. Source data are provided as a Source Data file.
(§2) Among the enzymes modifying tRNAs liable to recognize a stop codon by extended wobbling, human FTSJ1 (TRM7 in yeast) exclusively modifies tRNAs involved in UGA readthrough. In addition to other tRNA targets, FTSJ1 methylates the cytosine at position 34 of tRNA^Trp. Inhibition of this modification could increase the capacity of tRNA^Trp to misdecode and recognize the UGA stop codon. […] FTSJ1 and CTU1 overexpression were assessed by western-blot analysis (Fig. 5c).

[1] = tested on: firefly luciferase construct with UGA PTC in HeLa cells; experiment: UGA readthrough luciferase assay with empty expression vector (E.v.) control; type: cell-based, human;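 on luciferase activity, average: DAP exposure for 24 h before luciferase measurement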;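 on luciferase activity, exp2: DAP exposure for 24 h before luciferase measurement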
Text: as §1, §2

In the case of Nc1nc(N)c2[nH]cnc2n1 [DAP, 2,6-diaminopurine], the “luciferase activity, average” value (CTU1; 1µg CTU1, 600µM) is reported as 146715, the “luciferase activity, exp1” value (CTU1; 1µg CTU1, 600µM) is reported as 78978 and the “luciferase activity, exp1*1,5” value (CTU1; 1µg CTU1, 600µM) is reported as 118467. For the same molecule, the “luciferase activity, exp2” value (CTU1; 1µg CTU1, 600µM) was 174963, the “luciferase activity, average” value (CTU1; 2µg CTU1, 0.39µM) was 1088.5 and the “luciferase activity, exp1” value (CTU1; 2µg CTU1, 0.39µM) was 733. For the same molecule, the “luciferase activity, exp1*1,5” value (CTU1; 2µg CTU1, 0.39µM) was 1099.5, the “luciferase activity, exp2” value (CTU1; 2µg CTU1, 0.39µM) was 1077.5 and the “luciferase activity, average” value (CTU1; 2µg CTU1, 0.78µM) was 1344.88. For the same molecule, the “luciferase activity, exp1” value (CTU1; 2µg CTU1, 0.78µM) was 885.5, the “luciferase activity, exp1*1,5” value (CTU1; 2µg CTU1, 0.78µM) was 1328.25 and the “luciferase activity, exp2” value (CTU1; 2µg CTU1, 0.78µM) was 1361.5. The “luciferase activity, average” value (CTU1; 2µg CTU1, 1.56µM) was 2818.25, the “luciferase activity, exp1” value (CTU1; 2µg CTU1, 1.56µM) was 1937 and the “luciferase activity, exp1*1,5” value (CTU1; 2µg CTU1, 1.56µM) was 2905.5. The “luciferase activity, exp2” value (CTU1; 2µg CTU1, 1.56µM) was 2731, the “luciferase activity, average” value (CTU1; 2µg CTU1, 6.25µM) was 9528.62 and the “luciferase activity, exp1” value (CTU1; 2µg CTU1, 6.25µM) was 6020.5. The “luciferase activity, exp1*1,5” value (CTU1; 2µg CTU1, 6.25µM) was 9030.75, the “luciferase activity, exp2” value (CTU1; 2µg CTU1, 6.25µM) was 10026.5 and the “luciferase activity, average” value (CTU1; 2µg CTU1, 25µM) was 42062.1. The “luciferase activity, exp1” value (CTU1; 2µg CTU1, 25µM) was 22665.5, the “luciferase activity, exp1*1,5” value (CTU1; 2µg CTU1, 25µM) was 33998.2 and the “luciferase activity, exp2” value (CTU1; 2µg CTU1, 25µM) was 50126. For the same molecule, the “luciferase activity, average” value (CTU1; 2µg CTU1, 100µM) was 109330, the “luciferase activity, exp1” value (CTU1; 2µg CTU1, 100µM) was 66277.5 and the “luciferase activity, exp1*1,5” value (CTU1; 2µg CTU1, 100µM) was 99416.2. For the same molecule, the “luciferase activity, exp2” value (CTU1; 2µg CTU1, 100µM) was 119244, the “luciferase activity, average” value (CTU1; 2µg CTU1, 300µM) was 143657 and the “luciferase activity, exp1” value (CTU1; 2µg CTU1, 300µM) was 87747.5. For the same molecule, the “luciferase activity, exp1*1,5” value (CTU1; 2µg CTU1, 300µM) was 131621, the “luciferase activity, exp2” value (CTU1; 2µg CTU1, 300µM) was 155692 and the “luciferase activity, average” value (CTU1; 2µg CTU1, 600µM) was 121237. For the same molecule, the “luciferase activity, exp1” value (CTU1; 2µg CTU1, 600µM) was 66046, the “luciferase activity, exp1*1,5” value (CTU1; 2µg CTU1, 600µM) was 99069 and the “luciferase activity, exp2” value (CTU1; 2µg CTU1, 600µM) was 143406. The “luciferase activity, average” value ([1]; 0.39µM) was 1690.75, the “luciferase activity, exp1” value ([1]; 0.39µM) was 838 and the “luciferase activity, exp1*1,5” value ([1]; 0.39µM) was 1257. The “luciferase activity, exp2” value ([1]; 0.39µM) was 2124.5, the “luciferase activity, average” value ([1]; 0.78µM) was 2398.5 and the “luciferase activity, exp1” value ([1]; 0.78µM) was 1130. For the same molecule, the “luciferase activity, exp1*1,5” value ([1]; 0.78µM) was 1695, the “luciferase activity, exp2” value ([1]; 0.78µM) was 3102 and the “luciferase activity, average” value ([1]; 1.56µM) was 4502.75. The “luciferase activity, exp1” value ([1]; 1.56µM) was 2583, the “luciferase activity, exp1*1,5” value ([1]; 1.56µM) was 3874.5 and the “luciferase activity, exp2” value ([1]; 1.56µM) was 5131. The “luciferase activity, average” value ([1]; 6.25µM) was 33564.1, the “luciferase activity, exp1” value ([1]; 6.25µM) was 10235.5 and the “luciferase activity, exp1*1,5” value ([1]; 6.25µM) was 15353.2. For the same molecule, the “luciferase activity, exp2” value ([1]; 6.25µM) was 51775, the “luciferase activity, average” value ([1]; 25µM) was 96238.8 and the “luciferase activity, exp1” value ([1]; 25µM) was 36932. For the same molecule, the “luciferase activity, exp1*1,5” value ([1]; 25µM) was 55398, the “luciferase activity, exp2” value ([1]; 25µM) was 137080 and the “luciferase activity, average” value ([1]; 100µM) was 228679. The “luciferase activity, exp1” value ([1]; 100µM) was 118458, the “luciferase activity, exp1*1,5” value ([1]; 100µM) was 177688 and the “luciferase activity, exp2” value ([1]; 100µM) was 279670. For the same molecule, the “luciferase activity, average” value ([1]; 300µM) was 215676, the “luciferase activity, exp1” value ([1]; 300µM) was 106186 and the “luciferase activity, exp1*1,5” value ([1]; 300µM) was 159278. For the same molecule, the “luciferase activity, exp2” value ([1]; 300µM) was 272074, the “luciferase activity, average” value ([1]; 600µM) was 184925 and the “luciferase activity, exp1” value ([1]; 600µM) was 75195.5. For the same molecule, the “luciferase activity, exp1*1,5” value ([1]; 600µM) was 112793 and the “luciferase activity, exp2” value ([1]; 600µM) was 257056.
